Data from patent publication US20150158845A1, “5-HALOGEN-SUBSTITUTED OXINDOLE DERIVATIVES AND USE THEREOF FOR TREATING VASOPRESSIN-DEPENDENT DISEASES” (ABBVIE DEUTSCHLAND GMBH & CO. KG, priority 2007, published 2015).

Columns and labels:
[1] = target: T1, human vasopressin V1b receptor (Homo sapiens, UniProt P47901); experiment: Vasopressin V1b receptor binding assay; settings: membranes from CHO-K1 cells with human V1b receptor, 1.5 nM 3H-AVP
T1 construct: expressed in transfected cells; host or cells: CHO-K1 (clone 3H2; cell line hV1b-3H2_CHO), membrane preparation
T1 sequence (P47901 1-424): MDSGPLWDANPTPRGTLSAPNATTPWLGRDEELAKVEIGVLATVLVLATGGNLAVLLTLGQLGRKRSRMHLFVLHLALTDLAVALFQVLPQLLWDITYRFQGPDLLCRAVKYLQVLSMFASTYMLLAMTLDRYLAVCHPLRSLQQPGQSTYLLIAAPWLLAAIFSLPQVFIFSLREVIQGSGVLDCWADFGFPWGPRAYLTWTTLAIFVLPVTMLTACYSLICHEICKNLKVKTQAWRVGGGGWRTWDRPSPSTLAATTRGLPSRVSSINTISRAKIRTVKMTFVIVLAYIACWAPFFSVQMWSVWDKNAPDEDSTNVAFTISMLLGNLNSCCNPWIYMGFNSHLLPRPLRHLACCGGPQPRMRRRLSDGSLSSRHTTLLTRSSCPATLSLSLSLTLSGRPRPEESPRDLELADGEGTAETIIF
Procedure: 1. Vasopressin V1b Receptor Binding Assay:
The substance concentration was further diluted 1:5 in the assay mixture (2% DMSO in the mixture).
The nonspecific binding was determined with 1 M AVP (Bachem # H1780). All determinations were carried out as triplicate determinations.

[2] = Determination of the microsomal half-life / microsomal clearance; assay type: in vitro ADME; settings: human liver microsomes, 0.5 μM test substance, 0.25 mg microsomal protein/ml; for microsomal CLint at 0.5 μM: pH 7.4
Procedure: 5. Determination of the Microsomal Half-Life:
The metabolic stability of the compounds of the invention was determined in the following assay.
The test substances were incubated in a concentration of 0.5 μM as follows: 0.5 μM test substance are preincubated together with liver microsomes from different species (from rat, human or other species) (0.25 mg of microsomal protein/ml) in 0.05 M potassium phosphate buffer of pH 7.4 in microtiter plates at 37° C. for 5 min. The reaction is started by adding NADPH (1 mg/mL). After 0, 5, 10, 15, 20 and 30 min, 50 μl aliquots are removed, and the reaction is immediately stopped and cooled with the same volume of acetonitrile. The samples are frozen until analyzed. The remaining concentration of undegraded test substance is determined by MSMS. The half-life (T½) is determined from the gradient of the signal of test substance/unit time plot, it being possible to calculate the half-life of the test substance, assuming first order kinetics, from the decrease in the concentration of the compound with time. The microsomal clearance (mCl) is calculated from mCl=In2/T½/(content of microsomal protein in mg/ml)×1000 […] (modified from references: Di, The Society for Biomoleculur Screening, 2003, 453-462; Obach, DMD, 1999 vol 27. N 11, 1350-1359).

[3] = target: human vasopressin V1a receptor (Homo sapiens, UniProt P37288); experiment: Vasopressin V1a receptor binding assay; settings: selectivity: quotient of Ki at human V1a and Ki at human V1b
human vasopressin V1a receptor, sequence (P37288 whole entry): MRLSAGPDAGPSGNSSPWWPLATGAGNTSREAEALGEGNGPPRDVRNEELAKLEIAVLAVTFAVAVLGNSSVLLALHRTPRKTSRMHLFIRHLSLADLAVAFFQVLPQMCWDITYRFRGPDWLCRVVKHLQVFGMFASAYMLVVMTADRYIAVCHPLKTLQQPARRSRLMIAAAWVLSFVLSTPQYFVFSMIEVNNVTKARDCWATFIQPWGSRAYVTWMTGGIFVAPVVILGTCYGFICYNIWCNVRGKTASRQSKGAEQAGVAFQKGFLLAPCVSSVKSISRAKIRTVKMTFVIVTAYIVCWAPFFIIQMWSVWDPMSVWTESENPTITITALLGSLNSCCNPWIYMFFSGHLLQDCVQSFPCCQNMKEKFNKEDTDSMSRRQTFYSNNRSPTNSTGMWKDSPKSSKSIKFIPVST

microsomal CLint at 0.5 μM [2] | Compound | Ki [1] | Ki(h-V1a)/Ki(h-V1b) [3] | Human microsomal clearance [2]
75 to 100 µL/min/mg | CCOc1ncccc1C1(NC(=O)N2CCN(C3CCN(C)CC3)CC2)C(=O)N(S(=O)(=O)c2ccc(OC)cc2OC)c2ccc(Cl)cc21 (racemic) [Example 1, (±)-4-(1-Methylpiperidin-4-yl)piperazin-1-[5-chloro-1-(2,4-dimethoxyphenylsulfonyl)-3-(2-ethoxypyridin-3-yl)-2-oxo-2,3-dihydro-1H-indol-3-yl]carboxamide] | < 1 nM | +++ (>75) | 
 | CCOc1ncccc1C1(NC(=O)N2CCN(C3CCN(C)CC3)CC2)C(=O)N(S(=O)(=O)c2ccccc2)c2ccc(Cl)cc21.O=C(O)C(F)(F)F (racemic) [Example 3, (±)-4-(1-Methylpiperidin-4-yl)piperazine-1-[1-phenylsulfonyl-5-chloro-3-(2-ethoxypyridin-3-yl)-2-oxo-2,3-dihydro-1H-indol-3-yl]carboxamide, trifluoroacetic acid salt] | 1 to 10 nM | ++ (25-75) | +++ (<50 μl min^−1 mg^−1)
75 to 100 µL/min/mg | CCOc1ncccc1C1(NC(=O)N2CCC(C3CCN(C)CC3)CC2)C(=O)N(S(=O)(=O)c2ccc(OC)cc2OC)c2ccc(Cl)cc21 (racemic) [Example 13, (±)-1′-Methyl-[4,4′]bipiperidinyl-1-[5-chloro-1-(2,4-dimethoxyphenylsulfonyl)-3-(2-ethoxypyridin-3-yl)-2-oxo-2,3-dihydro-1H-indol-3-yl]carboxamide] | < 1 nM | ++ (25-75) | 
 | CCOc1ncc(C)cc1C1(NC(=O)N2CCN(C3CCN(C)CC3)CC2)C(=O)N(S(=O)(=O)c2ccc(OC)cc2OC)c2ccc(Cl)cc21.O=C(O)C(F)(F)F (racemic) [Example 14, (±)-4-(1-Methylpiperidin-4-yl)piperazine-1-[5-chloro-1-(2,4-dimethoxyphenylsulfonyl)-3-(2-ethoxy-5-methylpyridin-3-yl)-2-oxo-2,3-dihydro-1H-indol-3-yl]carboxamide, trifluoroacetic acid salt] | < 1 nM | +++ (>75) | ++ (50-75 μl min^−1 mg^−1)
 | CCOc1ncc(C)cc1C1(NC(=O)N2CCN(C3CCN(CC)CC3)CC2)C(=O)N(S(=O)(=O)c2ccc(OC)cc2OC)c2ccc(Cl)cc21.O=C(O)C(F)(F)F (racemic) [Example 15, (±)-4-(1-Ethylpiperidin-4-yl)piperazine-1-[5-chloro-1-(2,4-dimethoxyphenylsulfonyl)-3-(2-ethoxy-5-methylpyridin-3-yl)-2-oxo-2,3-dihydro-1H-indol-3-yl]carboxamide, trifluoroacetic acid salt] | < 1 nM | ++ (25-75) | + (>75-100 μl min^−1 mg^−1)
 | CCOc1ncc(C)cc1C1(NC(=O)N2CCC(N3CCN(C)CC3)CC2)C(=O)N(S(=O)(=O)c2ccc(OC)cc2OC)c2ccc(Cl)cc21.O=C(O)C(F)(F)F (racemic) [Example 16, (±)-4-(4-Methylpiperazin-1-yl)piperidine-1-[5-chloro-1-(2,4-dimethoxyphenylsulfonyl)-3-(2-ethoxy-5-methylpyridin-3-yl)-2-oxo-2,3-dihydro-1H-indol-3-yl]carboxamide, trifluoroacetic acid salt] | < 1 nM | + (10-<25) | + (>75-100 μl min^−1 mg^−1)
 | CCOc1ncc(C)cc1C1(NC(=O)N2CCC(N3CCN(CC)CC3)CC2)C(=O)N(S(=O)(=O)c2ccc(OC)cc2OC)c2ccc(Cl)cc21.O=C(O)C(F)(F)F (racemic) [Example 17, (±)-4-(4-Ethylpiperazin-1-yl)piperidine-1-[5-chloro-1-(2,4-dimethoxyphenylsulfonyl)-3-(2-ethoxy-5-methylpyridin-3-yl)-2-oxo-2,3-dihydro-1H-indol-3-yl]carboxamide, trifluoroacetic acid salt] | < 1 nM | + (10-<25) | + (>75-100 μl min^−1 mg^−1)
< 50 µL/min/mg | CCOc1ncccc1C1(NC(=O)N2CCN(C3CCN(C)CC3)CC2)C(=O)N(S(=O)(=O)c2ccc(OC)cc2OC)c2ccc(Cl)cc21 (single isomer, unassigned; (+)) [Example 1B, (+)-4-(1-Methylpiperidin-4-yl)piperazine-1-[5-chloro-1-(2,4-dimethoxyphenylsulfonyl)-3-(2-ethoxypyridin-3-yl)-2-oxo-2,3-dihydro-1H-indol-3-yl]carboxamide] | < 1 nM | +++ (>75) | 
50 to 75 µL/min/mg | CCOc1ncccc1C1(NC(=O)N2CCN(C3CCN(CC)CC3)CC2)C(=O)N(S(=O)(=O)c2ccc(OC)cc2OC)c2ccc(Cl)cc21 (single isomer, unassigned; (+)) [Example 4B, (+)-4-(1-Ethylpiperidin-4-yl)piperazine-1-[5-chloro-1-(2,4-dimethoxyphenylsulfonyl)-3-(2-ethoxypyridin-3-yl)-2-oxo-2,3-dihydro-1H-indol-3-yl]carboxamide] | < 1 nM | +++ (>75) | 
< 50 µL/min/mg | CCOc1ncccc1C1(NC(=O)N2CCC(N3CCN(C)CC3)CC2)C(=O)N(S(=O)(=O)c2ccc(OC)cc2OC)c2ccc(Cl)cc21 (single isomer, unassigned; (+)) [Example 5B, (+)-4-(4-Methylpiperazin-1-yl)piperidine-1-[5-chloro-1-(2,4-dimethoxyphenylsulfonyl)-3-(2-ethoxypyridin-3-yl)-2-oxo-2,3-dihydro-1H-indol-3-yl]carboxamide] | < 1 nM | +++ (>75) | 

Compound | microsomal CLint at 0.5 μM [2] | Ki [1] | Ki(h-V1a)/Ki(h-V1b) [3] | Human microsomal clearance [2]
CCOc1ncccc1C1(OC(=O)N2CCN(C3CCN(C)CC3)CC2)C(=O)N(S(=O)(=O)c2ccccc2)c2ccc(Cl)cc21.O=C(O)C(F)(F)F (racemic) [Example 24, 1-Phenylsulfonyl-5-chloro-3-(2-ethoxypyridin-3-yl)-2-oxo-2,3-dihydro-1H-indol-3-yl (±)-4-(1-methylpiperidin-4-yl)piperazine-1-carboxylate, trifluoroacetic acid salt] | 50 to 75 µL/min/mg | 1 to 10 nM | ++ (25-75) | 
CCOc1ncccc1C1(CC(=O)N2CCN(C3CCN(C)CC3)CC2)C(=O)N(S(=O)(=O)c2ccc(OC)cc2OC)c2ccc(Cl)cc21.O=C(O)C(F)(F)F (racemic) [Example 28, (±)-5-Chloro-1-(2,4-dimethoxyphenylsulfonyl)-3-(2-ethoxypyridin-3-yl)-3-{2-[4-(1-methylpiperidin-4-yl)piperazin-1-yl]-2-oxoethyl}-1,3-dihydroindol-2-one, trifluoroacetic acid salt] | 75 to 100 µL/min/mg | < 1 nM | ++ (25-75) | 
CCOc1ncccc1C1(CC(=O)N2CCN(C3CCN(C)CC3)CC2)C(=O)N(S(=O)(=O)c2ccccc2)c2ccc(Cl)cc21.O=C(O)C(F)(F)F (racemic) [Example 29, (±)-1-Phenylsulfonyl-5-chloro-3-(2-ethoxypyridin-3-yl)-3-{2-[4-(1-methylpiperidin-4-yl)piperazin-1-yl]-2-oxoethyl}-1,3-dihydroindol-2-one, trifluoroacetic acid salt] | < 50 µL/min/mg | 1 to 10 nM | + (10-<25) | 
CCOc1ncccc1C1(CC(=O)N2CCC(N3CCN(CC)CC3)CC2)C(=O)N(S(=O)(=O)c2ccc(OC)cc2OC)c2ccc(Cl)cc21.O=C(O)C(F)(F)F (racemic) [Example 32, (±)-5-Chloro-1-(2,4-dimethoxyphenylsulfonyl)-3-(2-ethoxypyridin-3-yl)-3-{2-[4-(4-ethylpiperazin-1-yl)piperidin-1-yl]-2-oxoethyl}-1,3-dihydroindol-2-one, trifluoroacetic acid salt] | 50 to 75 µL/min/mg | < 1 nM | + (10-<25) | 
